Consider one compound from ChEMBL document CHEMBL4007467, “Effects of 6-paradol, an unsaturated ketone from gingers, on cytochrome P450-mediated drug metabolism” (Bioorg Med Chem Lett, 2017).

SMILES strings stand for the structures.

The term IC50 denotes the concentration that inhibits the measured activity by half.

Type in all cases: ADME
Series [1] addresses T1, CYP2C19 (Homo sapiens, UniProt P33261). The experiment in a line: Inhibition of CYP2C19 in human liver microsomes assessed as enzyme-mediated metabolite formation at 0.3 uM using (S)-mephenytoin as substrate preincubated for 20 mins followed by substrate addition measured after 30 mins in presence of NADPH by LC-MS/MS analysis relative to control. More on the design: scale not given: the % may be the effect or the level left. The settings on record: probe (S)-mephenytoin, read-out: Activity. (Liver microsomes are vesicles of endoplasmic reticulum, rich in cytochrome P450 enzymes.)

Series [2] deals with T2, CYP1A2 (Homo sapiens, UniProt P05177).
T2 sequence (P05177 whole entry): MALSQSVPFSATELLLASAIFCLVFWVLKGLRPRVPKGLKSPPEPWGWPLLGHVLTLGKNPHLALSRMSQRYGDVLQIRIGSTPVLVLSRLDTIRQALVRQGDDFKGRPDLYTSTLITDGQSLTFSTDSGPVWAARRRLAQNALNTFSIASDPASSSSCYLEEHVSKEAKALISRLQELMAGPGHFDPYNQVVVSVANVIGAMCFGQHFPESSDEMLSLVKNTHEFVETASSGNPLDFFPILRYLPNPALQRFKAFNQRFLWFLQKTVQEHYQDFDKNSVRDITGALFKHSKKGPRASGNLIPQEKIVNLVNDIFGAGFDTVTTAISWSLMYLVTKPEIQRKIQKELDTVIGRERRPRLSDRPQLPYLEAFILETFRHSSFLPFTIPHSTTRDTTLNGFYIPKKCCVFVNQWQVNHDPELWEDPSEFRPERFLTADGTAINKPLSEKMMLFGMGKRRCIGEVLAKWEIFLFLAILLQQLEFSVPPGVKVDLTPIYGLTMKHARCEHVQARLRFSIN
Description: Inhibition of CYP1A2 in human liver microsomes assessed as enzyme-mediated metabolite formation at 1 uM using phenacetin as substrate incubated for 5 mins followed by NADPH addition measured after 30 mins by LC-MS/MS analysis relative to control. More on the design: scale not given: the % may be the effect or the level left. The conditions noted are these: probe phenacetin, read-out: Activity.

In series [3] the target is T3, CYP2D6 (Homo sapiens, UniProt P10635). The experiment in a line: Inhibition of CYP2D6 in human liver microsomes assessed as enzyme-mediated metabolite formation at 3 uM using dextromethorphan as substrate preincubated for 20 mins followed by substrate addition measured after 30 mins in presence of NADPH by LC-MS/MS analysis relative to control. More on the design: scale not given: the % may be the effect or the level left. The settings on record: probe dextromethorphan, read-out: Activity.

The target of series [4] is Cytochrome P450 2C19 (Homo sapiens, UniProt P33261). The experiment in a line: Inhibition of human CYP2C19 using (S)-mephenytoin as substrate incubated for 5 mins followed by NADPH addition measured after 30 mins by LC-MS/MS analysis.
The target in series [5] is T1, CYP2C19. The experiment in a line: Inhibition of CYP2C19 in human liver microsomes assessed as enzyme-mediated metabolite formation at 30 uM using (S)-mephenytoin as substrate incubated for 5 mins followed by NADPH addition measured after 30 mins by LC-MS/MS analysis relative to control. More on the design: scale not given: the % may be the effect or the level left. The conditions noted are these: probe (S)-mephenytoin, read-out: Activity.

Series [6] deals with T4, Cytochrome P450 2C9 (Homo sapiens, UniProt P11712). Description: Inhibition of CYP2C9 in human liver microsomes using diclofenac as substrate preincubated for 20 mins followed by substrate addition measured after 30 mins in presence of NADPH by LC-MS/MS analysis.
In series [7] the target is T3, CYP2D6. Description: Inhibition of CYP2D6 in human liver microsomes assessed as enzyme-mediated metabolite formation at 10 uM using dextromethorphan as substrate preincubated for 20 mins followed by substrate addition measured after 30 mins in presence of NADPH by LC-MS/MS analysis relative to control. More on the design: scale not given: the % may be the effect or the level left. The settings on record: probe dextromethorphan, read-out: Activity.

In series [8] the target is T5, CYP3A4 (Homo sapiens, UniProt P08684). The experiment in a line: Inhibition of CYP3A4 in human liver microsomes assessed as enzyme-mediated metabolite formation at 0.3 uM using midazolam as substrate incubated for 5 mins followed by NADPH addition measured after 30 mins by LC-MS/MS analysis relative to control. More on the design: scale not given: the % may be the effect or the level left. The settings on record: probe midazolam, read-out: Activity.

The target in series [9] is T6, CYP2A6 (Homo sapiens, UniProt P11509).
T6 sequence (P11509 whole entry): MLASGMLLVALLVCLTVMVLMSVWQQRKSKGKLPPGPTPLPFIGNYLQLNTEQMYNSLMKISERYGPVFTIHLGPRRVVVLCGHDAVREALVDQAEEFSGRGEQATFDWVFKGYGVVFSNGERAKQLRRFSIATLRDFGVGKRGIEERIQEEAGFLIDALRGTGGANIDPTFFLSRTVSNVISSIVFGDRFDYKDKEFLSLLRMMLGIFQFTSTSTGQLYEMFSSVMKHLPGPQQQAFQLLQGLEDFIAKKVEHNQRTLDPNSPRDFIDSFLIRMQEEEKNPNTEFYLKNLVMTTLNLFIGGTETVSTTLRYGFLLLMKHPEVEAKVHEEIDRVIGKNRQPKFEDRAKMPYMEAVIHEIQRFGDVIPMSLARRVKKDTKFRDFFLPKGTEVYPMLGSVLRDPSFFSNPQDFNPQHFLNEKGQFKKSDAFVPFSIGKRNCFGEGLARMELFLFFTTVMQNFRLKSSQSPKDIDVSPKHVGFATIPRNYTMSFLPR
Description: Inhibition of CYP2A6 in human liver microsomes assessed as enzyme-mediated metabolite formation at 0.1 uM using coumarin as substrate incubated for 5 mins followed by NADPH addition measured after 30 mins by LC-MS/MS analysis relative to control. More on the design: scale not given: the % may be the effect or the level left. The conditions noted are these: probe coumarin, read-out: Activity.

Series [10] addresses T4, Cytochrome P450 2C9. Description: Inhibition of CYP2C9 in human liver microsomes assessed as enzyme-mediated metabolite formation using diclofenac as substrate incubated for 5 mins followed by NADPH addition measured after 30 mins by LC-MS/MS analysis.
Series [11] concerns the target T6, CYP2A6. The experiment in a line: Inhibition of CYP2A6 in human liver microsomes assessed as enzyme-mediated metabolite formation at 30 uM using coumarin as substrate preincubated for 20 mins followed by substrate addition measured after 30 mins in presence of NADPH by LC-MS/MS analysis relative to control. More on the design: scale not given: the % may be the effect or the level left. The conditions noted are these: probe coumarin, read-out: Activity.

Series [12] has as its target T5, CYP3A4. Description: Inhibition of CYP3A4 in human liver microsomes assessed as enzyme-mediated metabolite formation at 1 uM using testosterone as substrate preincubated for 20 mins followed by substrate addition measured after 30 mins in presence of NADPH by LC-MS/MS analysis relative to control. More on the design: scale not given: the % may be the effect or the level left. The settings on record: probe testosterone, read-out: Activity.

T3 sequence (P10635 whole entry): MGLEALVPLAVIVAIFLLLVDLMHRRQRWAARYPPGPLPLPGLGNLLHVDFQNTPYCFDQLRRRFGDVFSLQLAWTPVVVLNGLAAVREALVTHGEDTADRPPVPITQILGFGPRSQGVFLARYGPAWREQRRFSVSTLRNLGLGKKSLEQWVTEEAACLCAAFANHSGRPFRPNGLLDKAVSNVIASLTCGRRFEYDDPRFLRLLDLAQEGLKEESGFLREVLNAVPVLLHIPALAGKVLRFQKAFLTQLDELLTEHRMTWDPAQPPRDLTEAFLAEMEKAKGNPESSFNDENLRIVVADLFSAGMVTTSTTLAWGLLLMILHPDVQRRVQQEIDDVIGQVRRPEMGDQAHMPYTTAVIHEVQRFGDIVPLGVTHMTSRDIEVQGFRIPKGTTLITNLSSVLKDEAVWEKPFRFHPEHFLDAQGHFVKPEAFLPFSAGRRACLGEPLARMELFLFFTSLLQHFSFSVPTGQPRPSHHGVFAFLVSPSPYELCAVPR
T4 sequence (P11712 whole entry): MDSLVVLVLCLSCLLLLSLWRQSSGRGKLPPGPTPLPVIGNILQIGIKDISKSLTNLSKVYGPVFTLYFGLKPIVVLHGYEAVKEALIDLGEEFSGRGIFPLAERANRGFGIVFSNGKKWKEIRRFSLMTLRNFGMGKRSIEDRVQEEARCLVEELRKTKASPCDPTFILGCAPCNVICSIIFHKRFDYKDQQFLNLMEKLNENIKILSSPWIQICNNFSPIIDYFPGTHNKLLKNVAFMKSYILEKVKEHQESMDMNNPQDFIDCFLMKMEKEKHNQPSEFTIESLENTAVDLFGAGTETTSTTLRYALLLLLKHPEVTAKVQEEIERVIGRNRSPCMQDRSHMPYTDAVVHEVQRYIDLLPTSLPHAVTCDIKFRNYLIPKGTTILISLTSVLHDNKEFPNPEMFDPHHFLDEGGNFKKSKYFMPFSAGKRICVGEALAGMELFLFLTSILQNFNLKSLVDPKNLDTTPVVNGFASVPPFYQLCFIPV
T5 sequence (P08684 whole entry): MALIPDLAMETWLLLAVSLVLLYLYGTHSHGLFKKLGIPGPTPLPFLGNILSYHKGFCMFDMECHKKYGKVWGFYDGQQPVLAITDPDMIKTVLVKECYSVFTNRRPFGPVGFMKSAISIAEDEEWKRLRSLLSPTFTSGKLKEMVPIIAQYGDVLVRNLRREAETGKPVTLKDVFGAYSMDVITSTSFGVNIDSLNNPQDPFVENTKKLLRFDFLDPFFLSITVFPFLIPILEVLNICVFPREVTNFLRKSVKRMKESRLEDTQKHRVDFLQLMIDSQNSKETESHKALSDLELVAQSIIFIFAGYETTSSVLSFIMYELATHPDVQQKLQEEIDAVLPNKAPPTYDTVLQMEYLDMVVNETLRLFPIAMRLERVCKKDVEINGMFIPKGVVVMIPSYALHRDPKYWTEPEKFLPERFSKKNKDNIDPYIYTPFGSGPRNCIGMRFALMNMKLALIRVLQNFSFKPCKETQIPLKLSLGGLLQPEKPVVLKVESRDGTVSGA
Cytochrome P450 2C19, sequence (P33261 whole entry): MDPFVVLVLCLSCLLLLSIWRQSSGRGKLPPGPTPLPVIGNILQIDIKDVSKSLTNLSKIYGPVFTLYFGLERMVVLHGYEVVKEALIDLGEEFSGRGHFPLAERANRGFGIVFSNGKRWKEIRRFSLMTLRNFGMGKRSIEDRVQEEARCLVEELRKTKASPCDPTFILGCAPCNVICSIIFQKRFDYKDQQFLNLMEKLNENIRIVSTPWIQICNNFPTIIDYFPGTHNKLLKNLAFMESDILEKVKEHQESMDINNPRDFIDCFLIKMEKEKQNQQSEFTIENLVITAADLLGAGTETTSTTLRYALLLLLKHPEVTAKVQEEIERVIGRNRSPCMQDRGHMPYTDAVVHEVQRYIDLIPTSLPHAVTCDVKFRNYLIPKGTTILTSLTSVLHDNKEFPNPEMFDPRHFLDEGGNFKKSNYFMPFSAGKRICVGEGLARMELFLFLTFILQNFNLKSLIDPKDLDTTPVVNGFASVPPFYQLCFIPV
T1 sequence (P33261 whole entry): as above

For the compound `CCCCCCCC(=O)CCc1ccc(O)c(OC)c1`, the activity at 0.5 h, 0.3 µM in series [1] was determined as 81.5%; in series [8] it was 103%. Further, the activity at 0.5 h, 1 µM is 79.2% in series [2] and 89.8% in series [12]. In addition, the activity at 0.5 h, 3 µM in series [3] came out at 103%. Besides, the IC50 in [4] amounted to 5.8 µM; in series [6], 9.9 µM; in series [10] it was 13.6 µM. Besides, the “inhibition (INH)” value in series [4] (human, 0.5 h) is “Dose-dependent effect”. For the same compound, the activity at 0.5 h, 30 µM in series [5] is 42%; in series [11], 79.9%. For the same compound, the activity at 0.5 h, 10 µM in series [7] turned out to be 99.4%. Further, the activity at 0.5 h, 0.1 µM in series [9] amounted to 103%.
